According to patent US10233173B2, “Substituted 1,2,3-triazoles as NR2B-selective NMDA modulators” (JANSSEN PHARMACEUTICA NV, priority 2016, dated 2019):

Target: human GluN1/GluN2B NMDA receptors (Homo sapiens, UniProt Q05586+Q13224)
Experiment: Cell-based calcium flux (FLIPR) assay on cloned human NR1/NR2B ion channels expressed in mammalian cells
Details: standard assay; glutamate at ~EC80; FLIPR calcium flux
Outline: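 Calcium influx followed by FLIPR fluorescence after 5 min compound exposure and a further 5 min co-agonist challenge: 10 μM glycine with glutamate at ~EC80 (standard) or EC40 (HTS).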

Chain of human GluN1/GluN2B NMDA receptors (Q13224 27-1484, other chains not shown): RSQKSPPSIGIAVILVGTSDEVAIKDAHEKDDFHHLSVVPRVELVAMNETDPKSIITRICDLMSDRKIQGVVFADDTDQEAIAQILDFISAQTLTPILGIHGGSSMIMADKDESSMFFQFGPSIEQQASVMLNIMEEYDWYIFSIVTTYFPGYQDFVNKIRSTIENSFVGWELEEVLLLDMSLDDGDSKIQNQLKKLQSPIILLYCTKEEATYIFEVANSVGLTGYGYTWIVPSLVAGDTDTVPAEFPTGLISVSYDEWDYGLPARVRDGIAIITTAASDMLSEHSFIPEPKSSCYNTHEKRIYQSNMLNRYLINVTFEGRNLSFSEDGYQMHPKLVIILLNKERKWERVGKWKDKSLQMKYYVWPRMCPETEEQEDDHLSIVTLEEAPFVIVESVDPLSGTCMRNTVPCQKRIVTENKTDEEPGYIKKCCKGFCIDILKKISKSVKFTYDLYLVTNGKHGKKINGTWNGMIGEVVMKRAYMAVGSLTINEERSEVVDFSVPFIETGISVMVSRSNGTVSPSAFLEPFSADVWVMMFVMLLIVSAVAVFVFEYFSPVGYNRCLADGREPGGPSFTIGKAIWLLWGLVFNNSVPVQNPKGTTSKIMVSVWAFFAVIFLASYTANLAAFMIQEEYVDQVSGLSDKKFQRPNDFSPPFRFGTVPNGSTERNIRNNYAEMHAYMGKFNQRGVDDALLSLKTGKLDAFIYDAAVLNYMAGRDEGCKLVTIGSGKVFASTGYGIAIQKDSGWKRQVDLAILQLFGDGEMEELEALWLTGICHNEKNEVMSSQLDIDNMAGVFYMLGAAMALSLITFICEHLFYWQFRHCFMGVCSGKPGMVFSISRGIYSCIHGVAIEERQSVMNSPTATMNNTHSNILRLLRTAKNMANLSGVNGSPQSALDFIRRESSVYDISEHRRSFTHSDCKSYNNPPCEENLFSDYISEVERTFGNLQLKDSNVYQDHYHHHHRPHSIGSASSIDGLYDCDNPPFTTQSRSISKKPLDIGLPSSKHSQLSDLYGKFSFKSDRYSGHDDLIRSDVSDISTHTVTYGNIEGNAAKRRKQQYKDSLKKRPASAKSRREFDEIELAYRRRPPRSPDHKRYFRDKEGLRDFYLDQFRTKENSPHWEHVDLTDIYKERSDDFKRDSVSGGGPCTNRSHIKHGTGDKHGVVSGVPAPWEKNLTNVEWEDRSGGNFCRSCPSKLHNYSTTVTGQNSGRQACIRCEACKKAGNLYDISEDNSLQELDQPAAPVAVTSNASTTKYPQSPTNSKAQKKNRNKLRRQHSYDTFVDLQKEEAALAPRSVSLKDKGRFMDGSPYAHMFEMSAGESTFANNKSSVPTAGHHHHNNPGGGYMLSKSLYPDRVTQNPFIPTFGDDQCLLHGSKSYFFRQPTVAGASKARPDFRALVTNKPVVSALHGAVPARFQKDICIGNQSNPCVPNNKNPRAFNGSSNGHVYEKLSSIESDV

Row | SMILES | IC50
1 | Nc1ccnc(OCc2cn(-c3ccc(F)c(C(F)F)c3)nn2)n1 [Example 412, 2-[[1-[3-(Difluoromethyl)-4-fluoro-phenyl]triazol-4-yl]methoxy]pyrimidin-4-amine] | 0.124 µM
2 | Fc1ccc(-n2cc(COc3nccc(NC4COC4)n3)nn2)cc1OC(F)F [Example 671, 2-((1-(3-(Difluoromethoxy)-4-fluorophenyl)-1H-1,2,3-triazol-4-yl)methoxy)-N-(oxetan-3-yl)pyrimidin-4-amine] | 0.126 µM
3 | Cc1c(F)cccc1-n1cc(COc2ncc(Cl)cn2)nn1 [Example 463, 5-Chloro-2-[[1-(3-fluoro-2-methyl-phenyl)triazol-4-yl]methoxy]pyrimidine] | 0.647 µM
4 | CNc1nc(OCc2cn(-c3ccc(F)c(OC(F)F)c3)nn2)ncc1C [Example 515, 2-[[1-[3-(Difluoromethoxy)-4-fluoro-phenyl]triazol-4-yl]methoxy]-N,5-dimethyl-pyrimidin-4-amine] | 0.099 µM
5 | Fc1c(Cl)cccc1-n1cc(COc2ncc(Cl)cn2)nn1 [Example 612, 5-Chloro-2-[[1-(3-chloro-2-fluoro-phenyl)triazol-4-yl]methoxy]pyrimidine] | 1.74 µM
6 | CNc1ccnc(OCc2cn(-c3ccc(F)c(OC(F)F)c3)nn2)n1 [Example 503, 2-[[1-[3-(Difluoromethoxy)-4-fluoro-phenyl]triazol-4-yl]methoxy]-N-methyl-pyrimidin-4-amine] | 0.008 µM
7 | CC(F)(F)c1cc(-n2cc(COc3ncccc3F)nn2)ccc1F [Example 555, 2-[[1-[3-(1,1-Difluoroethyl)-4-fluoro-phenyl]triazol-4-yl]methoxy]-3-fluoro-pyridine] | 0.265 µM
8 | Fc1ccc(-n2cc(COc3nccc(N4CC(F)C4)n3)nn2)cc1OC(F)F [Example 510, 2-[[1-[3-(Difluoromethoxy)-4-fluoro-phenyl]triazol-4-yl]methoxy]-4-(3-fluoroazetidin-1-yl)pyrimidine] | 0.025 µM
9 | CC(C)(O)c1cnc(OCc2cn(-c3cccc(F)c3F)nn2)nc1 [Example 608, 2-[2-[[1-(2,3-Difluorophenyl)triazol-4-yl]methoxy]pyrimidin-5-yl]propan-2-ol] | > 10 µM
10 | CC(F)(F)c1ccnc(OCc2cn(-c3ccc(F)c(C(F)F)c3)nn2)n1 [Example 696, 4(1,1-Difluoroethyl)-2-((1-(3-(difluoromethyl)-4-fluorophenyl)-1H-1,2,3-triazol-4-yl)methoxy)pyrimidine] | 0.958 µM
11 | Fc1ccc(-n2cc(COc3ncc(C4CC4)cn3)nn2)cc1C(F)(F)F [Example 453, 5-Cyclopropyl-2-[[1-[4-fluoro-3-(trifluoromethyl)phenyl]triazol-4-yl]methoxy]pyrimidine] | 0.022 µM
12 | Cc1cnc(OCc2nnn(-c3cccc(C(F)F)c3)c2C)nc1C [Example 528, 2-[[1-[3-(Difluoromethyl)phenyl]-5-methyl-triazol-4-yl]methoxy]-4,5-dimethyl-pyrimidine] | 0.752 µM
13 | CCc1cnc(OCc2cn(-c3ccc(F)cc3C)nn2)nc1 [Example 491, 5-Ethyl-2-[[1-(4-fluoro-2-methyl-phenyl)triazol-4-yl]methoxy]pyrimidine] | 1.17 µM
14 | CC(C)c1ccnc(OCc2cn(-c3ccc(F)c(OC(F)F)c3)nn2)n1 [Example 496, 2-[[1-[3-(Difluoromethoxy)-4-fluoro-phenyl]triazol-4-yl]methoxy]-4-isopropyl-pyrimidine] | 0.114 µM
15 | COc1ccnc(OCc2cn(-c3ccc(Cl)c(C(C)(F)F)c3)nn2)n1 [Example 541, 2-[[1-[4-Chloro-3-(1,1-difluoroethyl)phenyl]triazol-4-yl]methoxy]-4-methoxy-pyrimidine] | 0.012 µM
16 | CC(O)(c1cnc(OCc2cn(-c3ccc(F)c(C(F)F)c3)nn2)nc1)C(F)(F)F (racemic) [Example 404, (R/S)-2-[2-[[1-[3-(Difluoromethyl)-4-fluoro-phenyl]triazol-4-yl]methoxy]pyrimidin-5-yl]-1,1,1-trifluoro-propan-2-ol] | 0.482 µM
17 | CCNc1cnc(OCc2cn(-c3ccc(F)c(C(F)(F)F)c3)nn2)nc1 [Example 459, 2-((1-(3-(Trifluoromethyl)-4-fluorophenyl)-1H-1,2,3-triazol-4-yl)methoxy)-N-ethylpyrimidin-5-amine] | 0.126 µM

Same assay, conditions: standard assay; human GluN1/GluN2B, calcium flux (FLIPR), glutamate ~EC80

Row | SMILES | IC50
18 | Cc1cccc(OCc2cn(-c3ccc(F)c(OC(F)F)c3)nn2)n1 [Example 8, 2-[[1-[3-(Difluoromethoxy)-4-fluoro-phenyl]triazol-4-yl]methoxy]-6-methyl-pyridine] | 0.022 µM
19 | Cc1cnc(NCc2cn(-c3ccc(F)c(C(C)(F)F)c3)nn2)nc1C [Example 210, N-[[1-[3-(1,1-Difluoroethyl)-4-fluoro-phenyl]triazol-4-yl]methyl]-4,5-dimethyl-pyrimidin-2-amine] | 0.05 µM
20 | Fc1cnc(OCc2cn(-c3ccc(Cl)c(C(F)F)c3)nn2)nc1 [Example 66, 2-[[1-[4-Chloro-3-(difluoromethyl)phenyl]triazol-4-yl]methoxy]-5-fluoro-pyrimidine] | 0.052 µM
21 | Cc1cnc(OCc2cn(-c3cccc(C(C)(F)F)c3)nn2)nc1 [Example 297, 2-[[1-[3-(1,1-Difluoroethyl)phenyl]triazol-4-yl]methoxy]-5-methyl-pyrimidine] | 0.005 µM
22 | Cc1ccnc(OCc2cn(-c3ccc(F)c(C(C)(F)F)c3)nn2)n1 [Example 79, 2-[[1-[3-(1,1-Difluoroethyl)-4-fluoro-phenyl]triazol-4-yl]methoxy]-4-methyl-pyrimidine] | 0.007 µM
23 | CC(F)(F)c1cccc(-n2cc(COc3nccc(C(F)(F)F)n3)nn2)c1 [Example 304, 2-[[1-[3-(1,1-Difluoroethyl)phenyl]triazol-4-yl]methoxy]-4-(trifluoromethyl)pyrimidine] | 0.711 µM
24 | FCCCc1cnc(OCc2cn(-c3ccc(Cl)c(OC(F)F)c3)nn2)nc1 [Example 196, 2-[[1-[4-Chloro-3-(difluoromethoxy)phenyl]triazol-4-yl]methoxy]-5-(3-fluoropropyl)pyrimidine] | 0.024 µM
25 | Cc1cc(C)cc(-n2cc(COc3ncc(Cl)cn3)nn2)c1 [Example 363, 5-Chloro-2-[[1-(3,5-dimethylphenyl)triazol-4-yl]methoxy]pyrimidine] | 0.118 µM
26 | COc1cnc(OCc2cn(-c3ccc(Cl)c(C(F)F)c3)nn2)nc1 [Example 46, 2-[[1-[4-Chloro-3-(difluoromethyl)phenyl]triazol-4-yl]methoxy]-5-methoxy-pyrimidine] | 0.001 µM
27 | FC(F)Oc1cc(-n2cc(COc3ncccn3)nn2)ccc1Cl [Example 10, 2-[[1-[4-Chloro-3-(difluoromethoxy)phenyl]triazol-4-yl]methoxy]pyrimidine] | 0.01 µM
28 | Fc1cnc(OCc2cn(-c3ccc(OC(F)F)cc3)nn2)nc1 [Example 330, 2-[[1-[4-(Difluoromethoxy)phenyl]triazol-4-yl]methoxy]-5-fluoro-pyrimidine] | 0.752 µM
29 | CCc1cnc(OCc2cn(-c3ccc(F)c(C)c3F)nn2)nc1 [Example 39, 2-[[1-(2,4-Difluoro-3-methyl-phenyl)triazol-4-yl]methoxy]-5-ethyl-pyrimidine] | 0.015 µM
30 | Fc1cnc(NCc2cn(-c3cccc(C(F)F)c3)nn2)nc1 [Example 197, N-[[1-[3-(Difluoromethyl)phenyl]triazol-4-yl]methyl]-5-fluoro-pyrimidin-2-amine] | 0.652 µM
31 | COc1cnc(OCc2cn(-c3cccc(C(F)F)c3)nn2)nc1 [Example 90, 2-[[1-[3-(Difluoromethyl)phenyl]triazol-4-yl]methoxy]-5-methoxy-pyrimidine] | 0.012 µM
32 | Cc1cc(-n2cc(CNc3ncc(Cl)c(C)n3)nn2)ccc1F [Example 199, 5-Chloro-N-[[1-(4-fluoro-3-methyl-phenyl)triazol-4-yl]methyl]-4-methyl-pyrimidin-2-amine] | 0.051 µM
33 | Cc1cnc(OCc2cn(-c3ccc(F)c(C(F)(F)F)c3)nn2)nc1 [Example 81, 2-[[1-[4-Fluoro-3-(trifluoromethyl)phenyl]triazol-4-yl]methoxy]-5-methyl-pyrimidine] | 0.003 µM
34 | FC(F)Oc1cc(-n2cc(COc3ccncn3)nn2)ccc1Cl [Example 13, 4-[[1-[4-Chloro-3-(difluoromethoxy)phenyl]triazol-4-yl]methoxy]pyrimidine] | 0.879 µM
35 | Fc1cnc(OCc2cn(-c3cccc(C(F)F)c3)nn2)nc1 [Example 269, 2-[[1-[3-(Difluoromethyl)phenyl]triazol-4-yl]methoxy]-5-fluoro-pyrimidine] | 0.325 µM
36 | FC(F)(F)Oc1cccc(-n2cc(COc3ncc(Cl)cn3)nn2)c1 [Example 350, 5-Chloro-2-[[1-[3-(trifluoromethoxy)phenyl]triazol-4-yl]methoxy]pyrimidine] | 0.05 µM
37 | CC(F)(F)c1cc(-n2cc(CNc3ncc(C4CC4)cn3)nn2)ccc1F [Example 209, 5-Cyclopropyl-N-[[1-[3-(1,1-difluoroethyl)-4-fluoro-phenyl]triazol-4-yl]methyl]pyrimidin-2-amine] | 0.104 µM
38 | FC(F)Oc1ccc(-n2cc(COc3ncccn3)nn2)cc1 [Example 329, 2-[[1-[4-(Difluoromethoxy)phenyl]triazol-4-yl]methoxy]pyrimidine] | 0.854 µM
39 | FC(F)Oc1cc(-n2cc(COc3ncc(C(F)F)cn3)nn2)ccc1Cl [Example 96, 2-[[1-[4-Chloro-3-(difluoromethoxy)phenyl]triazol-4-yl]methoxy]-5-(difluoromethyl)pyrimidine] | 0.008 µM
40 | CC(C)c1cnc(OCc2cn(-c3ccc(F)c(Br)c3)nn2)nc1 [Example 43, 2-[[1-(3-Bromo-4-fluoro-phenyl)triazol-4-yl]methoxy]-5-isopropylpyrimidine] | 0.005 µM
41 | COc1cnc(OCc2cn(-c3cccc(C)c3)nn2)nc1 [Example 248, 5-Methoxy-2-[[1-(m-tolyl)triazol-4-yl]methoxy]pyrimidine] | 0.009 µM
42 | FC(F)Oc1cccc(-n2cc(COc3ncc(Cl)cn3)nn2)c1 [Example 326, 5-Chloro-2-[[1-[3-(difluoromethoxy)phenyl]triazol-4-yl]methoxy]pyrimidine] | 0.069 µM
